Columns and labels:
[1] = system: Wnt activity (Sp5-Luc reporter in SW480 cells); assay: Screening assay for Wnt activity: Sp5-Luc reporter gene assay in SW480 colon carcinoma cells; format: cell-based, human; settings: Homo sapiens, 36 to 48 hours
Text: The screening assay for Wnt activity is described as follows. Reporter cell lines can be generated by stably transducing cancer cell lines (e.g., colon cancer) or primary cells (e.g., IEC-6 intestinal cells) with a lentiviral construct that includes a Wnt-responsive promoter driving expression of the firefly luciferase gene.
SW480 colon carcinoma cells were transduced with a lentiviral vector expressing luciferase with a human Sp5 promoter consisting of a sequence of eight TCF/LEF binding sites. SW480 cells stably expressing the Sp5-Luc reporter gene and a hygromycin resistance gene were selected by treatment with 150 μg/mL of hygromycin for 7 days. These stably transduced SW480 cells were expanded in cell culture and used for all further screening activities. […] For Sp5-Luc reporter gene assays, the cells were plated at 4,000 cells/well in 384-well plates with a DMEM medium containing 1% fetal bovine serum, and 1% Penicillin-Streptomycin and incubated for 36 to 48 hours at 37° C. and 5% CO2. Following incubation, 15 μl of BriteLite Plus luminescence reagent (Perkin Elmer) was added to each well of the 384-well assay plates. The plates were placed on an orbital shaker for 2 min and then luminescence was quantified using the Envision (Perkin Elmer) plate reader. Readings were normalized to DMSO only treated cells, and normalized activities were utilized for EC50 calculations using the dose-response log (inhibitor) vs. response-variable slope (four parameters) nonlinear regression feature available in GraphPad Prism 5.0 (or Dotmatics).

DYRK1A kinase = DYRK1A kinase (Homo sapiens (Human), UniProt Q13627); assay: DYRK1A kinase assay (Ser/Thr 18 peptide Z-lyte FRET); format: biochemical; settings: read-out: EC50 (method: IC50)
Protocol: Representative compounds were screened using the assay procedure for DYRK1A kinase activity as described below.
This is a non-radioactive assay using fluorescence resonance energy transfer (FRET) between coumarin and fluorescein to detect kinase activity which is represented as a ratio of coumarin emission/fluorescein emission.
The mixture was allowed to incubate with the representative compounds for one hour at room temperature. All reactions were performed in duplicate. Unphosphorylated (“0% Control”) and phosphorylated (“100% control”) forms of Ser/Thr 18 served as control reactions. Additionally, an 11-point dose-response curve of Staurosporine (1 uM top) was run to serve as a positive compound control.
After incubation, Development Reagent A was diluted in Development Buffer then added to the reaction and allowed to further incubate for one hour at room temperature.

GSK3β kinase = GSK3β kinase (Homo sapiens (Human), UniProt P49841); assay: GSK3β kinase assay (Ser/Thr 09 peptide Z-lyte FRET); format: biochemical; settings: read-out: EC50 (method: IC50)
Sequence of GSK3β kinase (P49841 whole entry): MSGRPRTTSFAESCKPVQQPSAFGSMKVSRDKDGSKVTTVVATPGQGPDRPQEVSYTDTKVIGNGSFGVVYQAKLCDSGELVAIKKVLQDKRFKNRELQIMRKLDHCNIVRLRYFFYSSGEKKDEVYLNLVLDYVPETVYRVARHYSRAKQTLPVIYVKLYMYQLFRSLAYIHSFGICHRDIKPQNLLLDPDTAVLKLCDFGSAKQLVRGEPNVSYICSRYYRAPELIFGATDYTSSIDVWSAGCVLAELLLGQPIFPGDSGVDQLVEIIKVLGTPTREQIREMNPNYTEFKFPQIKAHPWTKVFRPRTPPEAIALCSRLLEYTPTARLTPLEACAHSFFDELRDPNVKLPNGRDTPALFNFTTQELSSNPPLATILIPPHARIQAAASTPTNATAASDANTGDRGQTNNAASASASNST
Protocol: Representative compounds were screened using the assay procedure for GSK3β kinase activity as described below.
This is a non-radioactive assay using fluorescence resonance energy transfer (FRET) between coumarin and fluorescein to detect kinase activity which is represented as ratio of coumarin emission/fluorescein emission.
The mixture is allowed to incubate with the representative compounds for one hour at room temperature. All reactions were performed in duplicate. Unphosphorylated (“0% Control”) and phosphorylated (“100% control”) forms of Ser/Thr 18 serve as control reactions.
After incubation, diluted Development Buffer is added to the reaction and allowed to further incubate for one hour at room temperature.
Dose-response curves are generated and inhibitory concentration (IC50) values are calculated using non-linear regression curve fit in the Dotmatics' Studies Software (Bishops Stortford, UK).

[2] = system: SW480 colon carcinoma cells; assay: Cell viability assay (CellTiter-Glo) in SW480 colon carcinoma cells; format: cell-based, human; settings: Homo sapiens, 96 h, four days
Protocol: Representative compounds were screened using the assay procedure to assess the effect on cell viability as described below.
SW480 colon carcinoma cells were transduced with a lentiviral vector expressing luciferase with a human Sp5 promoter consisting of a sequence of eight TCF/LEF binding sites. SW480 cells stably expressing the Sp5-Luc reporter gene and a hygromycin resistance gene were selected by treatment with 150 μg/mL of hygromycin for 7 days. These stably transduced SW480 cells were expanded in cell culture and used for all further screening activities.
For the Cell Viability Assays, the cells were plated at 2,000 cells/well in 384-well plates with a DMEM medium containing 1% fetal bovine serum, and 1% Penicillin-Streptomycin and incubated for […] at 37° C. and 5% CO2. Eight replicates of DMSO-treated cells served as controls and cells treated with compound were performed in duplicate.
After incubation, 10 μL of CellTiter-Glo (Promega) was added to each well allowed to incubate for approximately 12 minutes. This reagent “results in cell lysis and generation of a luminescent signal proportional to the amount of ATP present. The amount of ATP is directly proportional to the number of cells present in culture, in agreement with previous reports. The CellTiter-Glo® Assay generates a “glow-type” luminescent signal, produced by the luciferase reaction (Promega.com)”.

[3] = system: primary human fibroblasts derived from IPF patients (LL29 cells); assay: Inhibition of the fibrotic process: αSMA staining in TGF-β1 treated LL29 fibroblasts; format: cell-based; settings: Homo sapiens, Fibroblast, 96 h; LL29 cells, TGF-β1 20 ng/mL, 4 days, % αSMA positive cells
Protocol: Representative compounds were screened using primary human fibroblasts (derived from IPF patients) treated with TGF-β1 to determine their ability to inhibit the fibrotic process.
LL29 cells were plated at 1,500 cells/well in 70 μL/well F12 medium supplemented with 1% Fetal Bovine Serum. […] Wells treated with TGF-β1 and containing DMSO were used as positive control, and cells with only DMSO were negative control. […] Following incubation for 4 days, SYTOX green nucleic acid stain (Life Technologies [Thermo Fisher Scientific]) was added to the wells at a final concentration of 1 μM and incubated at room temperature for 30 min.

IL-6 = IL-6 inhibition in LPS-stimulated human peripheral blood mononuclear cells (HTRF); format: cell-based; settings: Homo sapiens, PBMC; for EC50: huPBMCs, LPS 50 ng/mL, 22 hours, IL-6 HTRF
Protocol: Fresh Normal PB MNC (Catalog #PB001, AllCells, Alameda, Calif.) were shipped overnight at 4° C. and resuspended in Roswell Park Memorial Institute (RPMI) 1640 Medium, with GlutaMAX Supplement (Catalog #61870127, ThermoFisher Scientific, Waltham, Mass.) supplemented with 1% Penicillin-Streptomycin (Catalog #15140163. ThermoFisher Scientific, Waltham, Mass.) and 1% fetal bovine serum (FBS) (Catalog #16140089, ThermoFisher Scientific, Waltham, Mass.) assay media. Fresh normal human peripheral blood mononuclear cells (huPBMCs) were resuspended in 1% FBS-RPMI assay media with 1% Penicillin-Streptomycin 1% to a cell concentration of 1×10e6 cells/mL. […] 50 ng/mL of Lipopolysaccharides from Escherichia coli 0111:B4 (Catalog #L5293-2ML, Sigma-Aldrich, St. Louis, Mo.) was added after 2 hours and cells were incubated for another 22 hours at 37° C.-5% CO2. After 22 hour incubation, a mixture of anti-IL6 XL665 and anti-IL-6 Cryptate diluted in reconstitution buffer (Catalog #62IL6PEC, Cisbio Inc., Bedford, Mass.) was added to each well. Following incubation for 3 hours at room temperature, Homogeneous Time-Resolved Fluorescence (HTRF) was measured using the Envision (Perkin Elmer, Shelton, Conn.) at 665 nm and […]. The ratio of fluorescence at 665 nm to 620 nm was used as a readout for IL-6 quantification. All samples were processed in duplicate. Readings were normalized to DMSO treated cells and normalized activities were utilized for EC50 calculations.

Structure (SMILES)	EC50 [1]	IC50 (DYRK1A kinase)	IC50 (GSK3β kinase)	EC50 [2]	EC50 (IL-6)	EC50 [3]	inhibition at 10 µM (IL-6; read-out: percent inhibition at 10 μM)
CC(C)CNC(=O)c1n[nH]c2ccc(-c3cn[nH]c3)cc12 [Compound 1, N-Isobutyl-5-(1H-pyrazol-4-yl)-1H-indazole-3-carboxamide]	358 nM	30 nM	28 nM	2580 nM	1170 nM	160 nM	
C[C@@H](NC(=O)c1n[nH]c2ccc(-c3cnn(C)c3)cc12)C(F)(F)F [Compound 3, (R)-5-(1-Methyl-1H-pyrazol-4-yl)-N-(1,1,1-trifluoropropan-2-yl)-1H-indazole-3-carboxamide]	> 10000 nM	134 nM	106 nM	8950 nM	9070 nM	2580 nM	
C[C@H](NC(=O)c1n[nH]c2ccc(-c3cnn(C)c3)cc12)C(F)(F)F [Compound 4, (S)-5-(1-Methyl-1H-pyrazol-4-yl)-N-(1,1,1-trifluoropropan-2-yl)-1H-indazole-3-carboxamide]	3840 nM	26 nM	24 nM	2550 nM	2890 nM	171 nM	
Cn1cc(-c2ccc3[nH]nc(C(=O)NCCC(F)(F)F)c3c2)cn1 [Compound 5, 5-(1-Methyl-1H-pyrazol-4-yl)-N-(3,3,3-trifluoropropyl)-1H-indazole-3-carboxamide]	655 nM	25 nM	8 nM	2520 nM	2940 nM	151 nM	
Cn1cc(-c2cc(F)c3[nH]nc(C(=O)NCCC(F)(F)F)c3c2)cn1 [Compound 6, 7-Fluoro-5-(1-methyl-1H-pyrazol-4-yl)-N-(3,3,3-trifluoropropyl)-1H-indazole-3-carboxamide]	325 nM	207 nM	15 nM	737 nM	> 10000 nM	148 nM	37.8%
CC(C)NC(=O)c1n[nH]c2ccc(-c3cnn(C4CCNCC4)c3)cc12 [Compound 7, N-Isopropyl-5-(1-(piperidin-4-yl)-1H-pyrazol-4-yl)-1H-indazole-3-carboxamide]	2600 nM	55 nM	255 nM	5600 nM	2010 nM	> 10000 nM	

Further lines, with some results ahead:

EC50 [1]	IC50 (DYRK1A kinase)	IC50 (GSK3β kinase)	EC50 [2]	EC50 (IL-6)	Structure (SMILES)	EC50 [3]	inhibition at 10 µM (IL-6; read-out: percent inhibition at 10 μM)
819 nM	25 nM	11 nM	5980 nM	3010 nM	CC(C)CNC(=O)c1n[nH]c2ccc(-c3cnn(C)c3)cc12 [Compound 2, N-Isobutyl-5-(1-methyl-1H-pyrazol-4-yl)-1H-indazole-3-carboxamide]	75 nM	
565 nM	31 nM	22 nM	511 nM	3360 nM	Cn1cc(-c2ccc3[nH]nc(C(=O)NCC4CCC(F)(F)CC4)c3c2)cn1 [Compound 8, N-((4,4-Difluorocyclohexyl)methyl)-5-(1-methyl-1H-pyrazol-4-yl)-1H-indazole-3-carboxamide]	146 nM	
1980 nM	18 nM	6 nM	1330 nM	1090 nM	Cn1cc(-c2ccc3[nH]nc(C(=O)N[C@@H]4CCCC[C@H]4F)c3c2)cn1 [Compound 9, N-((1R,2R)-2-Fluorocyclohexyl)-5-(1-methyl-1H-pyrazol-4-yl)-1H-indazole-3-carboxamide]	324 nM	
3400 nM	16 nM	9 nM	1080 nM	903 nM	Cn1cc(-c2cc3c(C(=O)N[C@@H]4CCCC[C@H]4F)n[nH]c3cc2F)cn1 [Compound 10, 6-Fluoro-N-((1R,2R)-2-fluorocyclohexyl)-5-(1-methyl-1H-pyrazol-4-yl)-1H-indazole-3-carboxamide]	331 nM	
> 10000 nM	198 nM	20 nM	1940 nM	3320 nM	Cn1cc(-c2cc(F)c3[nH]nc(C(=O)N[C@@H]4CCCC[C@H]4F)c3c2)cn1 [Compound 11, 7-Fluoro-N-((1R,2R)-2-fluorocyclohexyl)-5-(1-methyl-1H-pyrazol-4-yl)-1H-indazole-3-carboxamide]	> 10000 nM	
5470 nM	171 nM	38 nM	2260 nM	1160 nM	O=C(N[C@@H]1CCCC[C@H]1F)c1n[nH]c2ccc(-c3cnn(C4CC4)c3)cc12 [Compound 12, 5-(1-Cyclopropyl-1H-pyrazol-4-yl)-N-((1R,2R)-2-fluorocyclohexyl)-1H-indazole-3-carboxamide]	621 nM	
> 10000 nM	46 nM	24 nM	> 10000 nM	> 10000 nM	Cc1ncc(-c2ccc3[nH]nc(C(=O)N[C@@H]4CCCC[C@H]4F)c3c2)n1C [Compound 13, 5-(1,2-Dimethyl-1H-imidazol-5-yl)-N-((1R,2R)-2-fluorocyclohexyl)-1H-indazole-3-carboxamide]	1390 nM	
903 nM	18 nM	23 nM	> 10000 nM	3540 nM	Cn1cc(-c2ccc3[nH]nc(C(=O)NC4CCC(F)(F)CC4)c3c2)cn1 [Compound 14, N-(4,4-Difluorocyclohexyl)-5-(1-methyl-1H-pyrazol-4-yl)-1H-indazole-3-carboxamide]	114 nM	
